Source: the supplement of paper PMC10307832

How the values were obtained:
Test in all cases: relative viability (nuclei count vs DMSO), 5 days (fraction); higher = more cells survive
[1] = system: PC-14
Method in brief: (§1)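 The day after seeding in 1536-well plates, lung cancer cell lines were treated by pin tool with a single drug, or with a fixed anchor-drug dose together with five library-drug doses (not always all listed) in √10 steps. After 5 days, a combined fix-and-stain solution (final 0.05% Triton X-100, 1% formaldehyde, 1 ug/ml Hoechst) was added. Nuclei counted on 4× images gave relative viability as treated counts over vehicle counts, reported as the median of duplicate plates.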

[2] = system: NCI-H1915
Method in brief: as §1

[3] = system: NCI-H1355
Method in brief: as §1

[4] = system: NCI-H1651
Method in brief: as §1

[5] = system: EPLC-272H
Method in brief: as §1

[6] = system: NCI-H2347
Method in brief: as §1

[7] = system: NCI-H2023
Method in brief: as §1

[8] = system: LU99A
Method in brief: as §1

[9] = system: HARA
Method in brief: as §1

[10] = system: NCI-H838
Method in brief: as §1

[11] = system: NCI-H358
Method in brief: as §1

[12] = system: NCI-H2342
Method in brief: as §1

[13] = system: ABC-1
Method in brief: as §1

[14] = system: HCC-15
Method in brief: as §1

[15] = system: LC-2-ad
Method in brief: as §1

[16] = system: SW 1573
Method in brief: as §1

[17] = system: UMC-11
Method in brief: as §1

[18] = system: NCI-H650
Method in brief: as §1

[19] = system: NCI-H1993
Method in brief: as §1

[20] = system: NCI-H2085
Method in brief: as §1

[21] = system: NCI-H2126
Method in brief: as §1

[22] = system: COR-L23
Method in brief: as §1

CC1(C)CCC(c2ccc(Cl)cc2)=C(CN2CCN(c3ccc(C(=O)NS(=O)(=O)c4ccc(N[C@H](CCN5CCOCC5)CSc5ccccc5)c(S(=O)(=O)C(F)(F)F)c4)cc3)CC2)C1 [Navitoclax] + CCNC(=O)c1noc(-c2cc(C(C)C)c(O)cc2O)c1-c1ccc(CN2CCOCC2)cc1 [Luminespib] (partner 0.01 µM)
relative viability ([1]; first compound 0.005 µM): 0.223
relative viability ([1]; first compound 0.01581 µM): 0.154
relative viability ([1]; first compound 0.05 µM): 0.23
relative viability ([1]; first compound 0.1581 µM): 0.313
relative viability ([1]; first compound 0.5 µM): 0.146
relative viability ([2]; first compound 0.005 µM): 0.749
relative viability ([2]; first compound 0.01581 µM): 0.778
relative viability ([2]; first compound 0.05 µM): 0.793
relative viability ([2]; first compound 0.1581 µM): 0.746
relative viability ([2]; first compound 0.5 µM): 0.829
relative viability ([3]; first compound 0.005 µM): 0.725
relative viability ([3]; first compound 0.01581 µM): 0.845
relative viability ([3]; first compound 0.05 µM): 0.674
relative viability ([3]; first compound 0.1581 µM): 0.668
relative viability ([3]; first compound 0.5 µM): 0.742
relative viability ([4]; first compound 0.005 µM): 0.966
relative viability ([4]; first compound 0.01581 µM): 0.971
relative viability ([4]; first compound 0.05 µM): 0.563
relative viability ([4]; first compound 0.1581 µM): 0.809
relative viability ([4]; first compound 0.5 µM): 0.712
relative viability ([5]; first compound 0.005 µM): 0.391
relative viability ([5]; first compound 0.05 µM): 1
relative viability ([5]; first compound 0.1581 µM): 0.647
relative viability ([5]; first compound 0.5 µM): 0.133
relative viability ([6]; first compound 0.005 µM): 0.467
relative viability ([6]; first compound 0.01581 µM): 0.62
relative viability ([6]; first compound 0.1581 µM): 0.372
relative viability ([6]; first compound 0.5 µM): 0.312
relative viability ([7]; first compound 0.005 µM): 0.782
relative viability ([7]; first compound 0.01581 µM): 0.921
relative viability ([7]; first compound 0.05 µM): 0.83
relative viability ([7]; first compound 0.1581 µM): 0.568
relative viability ([7]; first compound 0.5 µM): 0.594
relative viability ([8]; first compound 0.005 µM): 0.221
relative viability ([8]; first compound 0.01581 µM): 0.217
relative viability ([8]; first compound 0.05 µM): 0.154
relative viability ([8]; first compound 0.1581 µM): 0.168
relative viability ([8]; first compound 0.5 µM): 0.274
relative viability ([9]; first compound 0.005 µM): 0.941
relative viability ([9]; first compound 0.01581 µM): 0.678
relative viability ([9]; first compound 0.1581 µM): 0.562
relative viability ([9]; first compound 0.5 µM): 0.682
relative viability ([10]; first compound 0.005 µM): 0.344
relative viability ([10]; first compound 0.01581 µM): 0.438
relative viability ([10]; first compound 0.05 µM): 0.37
relative viability ([10]; first compound 0.1581 µM): 0.17
relative viability ([10]; first compound 0.5 µM): 0.239
relative viability ([11]; first compound 0.005 µM): 0.418
relative viability ([11]; first compound 0.01581 µM): 0.325
relative viability ([11]; first compound 0.05 µM): 0.264
relative viability ([11]; first compound 0.1581 µM): 0.388
relative viability ([11]; first compound 0.5 µM): 0.242
relative viability ([12]; first compound 0.005 µM): 0.683
relative viability ([12]; first compound 0.01581 µM): 0.747
relative viability ([12]; first compound 0.05 µM): 0.476
relative viability ([12]; first compound 0.1581 µM): 0.723
relative viability ([12]; first compound 0.5 µM): 0.683
relative viability ([13]; first compound 0.005 µM): 0.596
relative viability ([13]; first compound 0.01581 µM): 0.909
relative viability ([13]; first compound 0.05 µM): 0.677
relative viability ([13]; first compound 0.5 µM): 0.6
relative viability ([14]; first compound 0.005 µM): 0.299
relative viability ([14]; first compound 0.01581 µM): 0.284
relative viability ([14]; first compound 0.05 µM): 0.546
relative viability ([14]; first compound 0.1581 µM): 0.352
relative viability ([14]; first compound 0.5 µM): 0.256
relative viability ([15]; first compound 0.005 µM): 0.993
relative viability ([15]; first compound 0.01581 µM): 1.16
relative viability ([15]; first compound 0.05 µM): 0.912
relative viability ([15]; first compound 0.1581 µM): 0.907
relative viability ([15]; first compound 0.5 µM): 0.856
relative viability ([16]; first compound 0.005 µM): 0.145
relative viability ([16]; first compound 0.01581 µM): 0.213
relative viability ([16]; first compound 0.05 µM): 0.429
relative viability ([16]; first compound 0.1581 µM): 0.212
relative viability ([16]; first compound 0.5 µM): 0.206
relative viability ([17]; first compound 0.005 µM): 0.986
relative viability ([17]; first compound 0.01581 µM): 1.07
relative viability ([17]; first compound 0.05 µM): 1.13
relative viability ([17]; first compound 0.1581 µM): 1.05
relative viability ([17]; first compound 0.5 µM): 0.829
relative viability ([18]; first compound 0.005 µM): 0.794
relative viability ([18]; first compound 0.01581 µM): 0.862
relative viability ([18]; first compound 0.05 µM): 0.682
relative viability ([18]; first compound 0.1581 µM): 0.786
relative viability ([18]; first compound 0.5 µM): 0.827
relative viability ([19]; first compound 0.005 µM): 0.813
relative viability ([19]; first compound 0.01581 µM): 0.891
relative viability ([19]; first compound 0.05 µM): 0.824
relative viability ([19]; first compound 0.1581 µM): 0.913
relative viability ([19]; first compound 0.5 µM): 0.803
relative viability ([20]; first compound 0.005 µM): 0.488
relative viability ([20]; first compound 0.01581 µM): 0.538
relative viability ([20]; first compound 0.05 µM): 0.484
relative viability ([20]; first compound 0.1581 µM): 0.46
relative viability ([20]; first compound 0.5 µM): 0.383
relative viability ([21]; first compound 0.005 µM): 0.906
relative viability ([21]; first compound 0.01581 µM): 0.952
relative viability ([21]; first compound 0.05 µM): 0.923
relative viability ([21]; first compound 0.1581 µM): 0.779
relative viability ([21]; first compound 0.5 µM): 0.844
relative viability ([22]; first compound 0.005 µM): 0.605
relative viability ([22]; first compound 0.01581 µM): 0.606
relative viability ([22]; first compound 0.05 µM): 0.738
relative viability ([22]; first compound 0.1581 µM): 0.595
relative viability ([22]; first compound 0.5 µM): 0.666
